Assay results from PubChem BioAssay AID2740 (NMMLSC, 2010).
Active and inactive are the calls of the source.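 Rule for the calls: active = compounds whose fitted half-maximal concentration for changing the GFP signal is at or below a set limit; inactive = the rest.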

Assay: TOR pathway RPL19A-GFP modulators, concentration series – cell-based, S. cerevisiae, flow cytometry, MLPCN hits, dose response (AID 2740);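 note: background is signal of the same compound in parental non-GFP s288c yeast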
Conditions: S. cerevisiae RPL19A-GFP strain, flow cytometry fluorescence, 3 h; at 33 µM (top of the series)

SMILES | GFP fluorescence, lower = active (kMESF (background-subtracted))
CC(C)C[C@]1(c2ccccc2)ON(c2ccccc2C(F)(F)F)C1=O | 36.6 (inactive)
COc1ccc(C(=O)/C=C2/C(=O)Nc3ccccc32)c(OC)c1 | 37.3 (inactive)
CC(=O)Oc1oc(-c2ccccc2)nc1C=Nc1ccc(N(C)C)cc1 | 41.6 (inactive)
O=S(=O)(/N=C(\Sc1ccc(Cl)cc1)c1ccccc1)c1ccccc1 | 33.6 (inactive)
Oc1ccc(Br)cc1/C=N/Nc1ccccn1 | 40.5 (inactive)
O=C1C(=O)c2ccccc2-c2ccccc21 | 17.7 (inactive)
COc1ccc(NC(=O)/C(Cl)=C(/Cl)S(=O)Cc2ccccc2)cn1 (stereo not drawn) | 35.8 (inactive)
CCN(CC)C(=S)SSC(=S)N(CC)CC | 34.1 (inactive)
Cc1ccc(C(=O)O/N=C(\N)Cc2cccs2)c(Cl)c1 | 38.5 (inactive)
O=C(c1ccccn1)c1conc1C(=O)c1ccc(Br)cc1 | 38.5 (inactive)
COc1ccccc1N1C(=O)c2cccc3c(C(=O)O)ccc(c23)C1=O | 44.8 (inactive)
CCN(CC)c1ccc2cc(-c3nc4ccccc4[nH]3)c(=O)oc2c1 | 42.6 (inactive)
CCN(CC)c1ccc(/C=C2/C(=O)c3ccc(C(=O)O)cc3C2=O)cc1 | 38.3 (inactive)
Cc1cc(S(=O)(=O)ON2C(=O)c3ccccc3C2=O)ccc1F | 43.3 (inactive)
CC(Oc1ccc2ccccc2c1)C(=O)NNC(=S)NC(=O)c1ccco1 (stereo not drawn) | 34.3 (inactive)
CCCCOc1ccc(C(=O)NNC(=S)NC(=O)CC)cc1 | 43 (inactive)
N#Cc1nccnc1S(=O)(=O)c1cccs1 | 35.5 (inactive)

SMILES | GFP fluorescence, lower = active (kMESF (background-subtracted))
Nc1ccccc1C#CC(=O)c1ccccc1 | 21 (inactive)
Cc1cc(C)c2c(c1)/C(=C/C(=O)c1ccc(Br)s1)C(=O)N2 | 46.6 (inactive)
CCc1ccc(/C=C/C(=O)c2cc(Br)ccc(=O)c2O)cc1 | 40.6 (inactive)
O=C(OCC(=O)N1CCN(C(=O)c2ccco2)CC1)c1cc(-c2ccc(Cl)c(Cl)c2Cl)nc2ccccc12 | 31.8 (inactive)
O=c1cc(-c2ccccc2)cc(-c2ccccc2)n1O | 15.4 (inactive)
O=c1/c(=C/c2cccc3ccccc23)sc2ncnn12 | 50.3 (inactive)
Cc1[nH]c(-c2ccccn2)nc(=S)c1Cl | 30.8 (inactive)
COc1ccc(N=Cc2nc(-c3ccccc3)oc2OC(=O)c2ccccc2)cc1 | 46.2 (inactive)
O=C(NNC(=S)NC(=O)C12CC3CC(CC(C3)C1)C2)c1ccncc1 | 46.9 (inactive)
Cc1cc(=O)n2c3c(sc2n1)C(=O)N(Cc1ccccc1)C3=O | 42.5 (inactive)
Cc1c(NC2=C(Cl)C(=O)N(c3ccccc3Cl)C2=O)c(=O)n(-c2ccccc2)n1C | 38.7 (inactive)
CCc1ccc(OCC(=O)NNC(=S)NC(=O)C2CC2)c(Br)c1 | 45.8 (inactive)
COc1ccc(N2C(=O)C(Cl)=C(Nc3c(C)n(C)n(-c4ccccc4)c3=O)C2=O)cc1 | 39.8 (inactive)
COc1cc(/C=C2\C(=O)ON=C2c2ccccc2)cc(OC)c1OC | 33.4 (inactive)
O=c1c2sc(-c3ccccc3)cc2nc2n1CCC2 | 20.5 (inactive)
Cc1ccc(C2=NOC(=O)/C2=C\c2ccc(C)o2)cc1 | 22 (inactive)
